Experimental data taken from US20170007562A1, “Use of Guanidinoacetic Acid and/or Creatine for Increasing the Hatch Rate” (EVONIK DEGUSSA GMBH, priority 2014, published 2017).

Key:
[1] = test system: parent broilers (Cobb 500); test: Effect of guanidinoacetic acid on egg production, fertility and hatching rate of hatchery eggs of parent broilers; assay type: in vivo; conditions: week 50 to 60
From the text: 120 parent broilers (Cobb 500) were randomly assigned to 5 different 10-week feeding measures from week 50 to week 60 of their lives. In each case 6 cages, each of which contained a total of 4 parent hens were subjected to each feeding measure. The basic feed employed was a mixture consisting essentially of maize meal and soybean meal (Table 5). […] In this context, in each case the inert constituents of the basic feed were substituted to some extent by the added guanidinoacetic acid. Guanidinoacetic acid was employed in the form of the commercial product CreAMINO® (96% GAA, Evonik Industries, Germany). The parent animals were given the feed meal as per instructions of the Cobb Breeder Management Guide. In week 60 of their lives, the hens were twice artificially inseminated, the second insemination taking place 4 days after the first one. The semen used for the insemination was obtained from cockerels which had not been fed GAA. The semen was obtained by using abdominal massage. The semen obtained was collected and the sperm cell concentration was determined in order to ensure that all hens were inseminated with the same number and the same volume of sperm cells. After carrying out the insemination, the laid eggs were collected on 10 successive days. The eggs obtained were finally incubated under identical conditions, and the egg production rate, fertility and hatching rate of the fertilized eggs were subsequently determined.

[2] = test system: parent quails / quail eggs; test: Effect of guanidinoacetic acid in parent feed on total fertility, hatching rate and embryo mortality of quail eggs; assay type: in vivo; conditions: for Total fertility: eggs of quails aged 29 weeks; for Hatching rate: hatched quails to incubated eggs
Description: 240 parent quails aged 25 weeks were randomly assigned to 5 different rations. Each ration had in each case 8 cages assigned to it, each of which contained a total of 6 birds (4 females, 2 males). Each of the cages was exposed to 17 hours light (natural and artificial), followed by 7 hours dark.
The basic feed employed was a mixture which consisted essentially of maize meal and extracted soybean meal (see table 1). Guanidinoacetic acid (GAA) was added to the basic feed in 4 different amounts (0.06; 0.12; 0.18; 0.24% by weight) giving in total 5 different feed mixtures—with the basic feed without guanidinoacetic acid as reference. The inert constituents of the basic feed were in each case partially substituted by the added guanidinoacetic acid. Guanidinoacetic acid was employed in the form of the commercial product CreAMINO® (96% GAA, Evonik Industries, Germany). During the experiment, the feed was administered ad lib in the form of a meal. Furthermore, the birds were also supplied with sufficient water.
When the quails had reached an age of 29 weeks, the eggs laid were collected on seven successive days and stored for six days in a room at a temperature of 20° C. Thereafter, in each case 196 eggs per ration were incubated in an automatic hatcher. After incubation for 15 days in the hatcher, the eggs were transferred into a hatching room with a temperature of 37° C. and relative atmospheric humidity of 65%. After two days in the hatching room, the hatching rate was determined as the ratio of hatched quails to the number of incubated eggs. Equally, the total fertility was determined as the ratio of fertilized eggs to the total number of incubated eggs. Furthermore, the hatching rate of fertilized eggs was determined as the ratio of hatched quails to the number of fertilized eggs. Furthermore, the embryo mortality, too, was determined. Finally, the guanidinoacetic acid, creatine and creatinine contents in the obtained eggs were determined.

hatched quail chicks = test: Effect of GAA feeding of the parent animals on the properties of the hatched chicks; assay type: in vivo, quails; conditions: for Feed conversion / Weight gain / total feed intake, days 1–35: GAA-free ration, days 1 to 35; for Weight on day 1: chicks on GAA-free ration
From the text: Finally, the effect of GAA feeding of the parent animals on the properties of the hatched chicks was also studied. To this end, in each case 80 chicks which had been obtained subsequently to feeding the parent animals with the respective ratios were subjected to a two-step feeding programme. Here, the chicks were subjected to a GAA-free ration. Here, all chicks were given the same feed. The feeding stuff of the chicks for the first three weeks and for weeks four to five can be seen from Table 1. The data determined were chick weight on the day of hatching, chick performance (feed intake, weight increase and feed conversion) and creatine content in the muscle tissue of the freshly hatched chicks.

eggs = conditions: prior art, Halle et al, Landbauforschung Völkenrode (2006); cited from earlier work
[3] = 0.04% by weight guanidinoacetic acid in feed
[4] = 0.08% by weight guanidinoacetic acid in feed
[5] = 0.12% by weight guanidinoacetic acid in feed
[6] = 0.16% by weight guanidinoacetic acid in feed
[7] = 0.06% by weight GAA in parent feed
[8] = 0.06% by weight GAA in parent feed, quails
[9] = 0.12% by weight GAA in parent feed
[10] = 0.12% by weight GAA in parent feed, quails
[11] = 0.18% by weight GAA in parent feed
[12] = 0.18% by weight GAA in parent feed, quails
[13] = 0.24% by weight GAA in parent feed
[14] = 0.24% by weight GAA in parent feed, quails
[15] = square regression analysis, quails
[16] = chicks of parents fed 0.06% by weight GAA
[17] = chicks of parents fed 0.12% by weight GAA
[18] = chicks of parents fed 0.18% by weight GAA
[19] = chicks of parents fed 0.24% by weight GAA

In the case of N=C(N)NCC(=O)O [GAA, Guanidinoacetic acid], the Egg production [1, 3] is reported as 50.42%, the Fertility [1, 3] is reported as 85.15% and the “Hatching rate (of fertilized eggs)” value [1, 3] is reported as 65.59%. For the same compound, the Egg production [1, 4] was 53.18%, the Fertility [1, 4] was 96.51% and the “Hatching rate (of fertilized eggs)” value [1, 4] was 83.76%. The Egg production [1, 5] was 53.44%, the Fertility [1, 5] was 96.43% and the “Hatching rate (of fertilized eggs)” value [1, 5] was 83.95%. The Egg production [1, 6] was 50.50%, the Fertility [1, 6] was 81.76% and the “Hatching rate (of fertilized eggs)” value [1, 6] was 65.04%. The Total fertility [2, 7] was 95.27 ± 1.81%, the Hatching rate [2, 7] was 76.52 ± 3.78% and the “Hatching rate of the fertilized eggs” value [2, 8] was 80.19 ± 3.07%. The “Mortality (embryo mortality)” value [2, 8] was 18.75 ± 2.76%, the Total fertility [2, 9] was 97.05 ± 1.51% and the Hatching rate [2, 9] was 90.69 ± 2.10%. For the same compound, the “Hatching rate of the fertilized eggs” value [2, 10] was 93.49 ± 2.04%, the “Mortality (embryo mortality)” value [2, 10] was 6.40 ± 1.96% and the Total fertility [2, 11] was 98.32 ± 0.82%. For the same compound, the Hatching rate [2, 11] was 87.39 ± 3.20%, the “Hatching rate of the fertilized eggs” value [2, 12] was 88.94 ± 3.33% and the “Mortality (embryo mortality)” value [2, 12] was 10.92 ± 3.32%. The Total fertility [2, 13] was 94.02 ± 1.29%, the Hatching rate [2, 13] was 81.38 ± 2.50% and the “Hatching rate of the fertilized eggs” value [2, 14] was 86.51 ± 2.03%. The “Mortality (embryo mortality)” value [2, 14] was 12.64 ± 1.89%, the “dosage from which the observed effects were significantly increased” value ([2]; quails) was “above 0.1 % by weight” and the “optimum range of feeding the parent animals” value ([2]; quails) was 0.12-0.18 % by weight. The “optimum value for GAA supplementation in terms of the hatching rate” value [2, 15] was 0.15 % by weight, the “optimum value for GAA supplementation in terms of the hatching rate of fertilized eggs” value [2, 15] was 0.16 % by weight and the “optimum value for GAA supplementation in terms of the mortality rate” value [2, 15] was 0.16 % by weight. For the same compound, the “optimum value for GAA supplementation in terms of the total reproduction” value [2, 15] was 0.14 % by weight, the Feed conversion (hatched quail chicks; [16]) was 3.248 ± 0.063 g/g and the Weight gain (hatched quail chicks; [16]) was 230.74 ± 7.6 g. The total feed intake, days 1–35 (hatched quail chicks; [16]) was 748 ± 11.1 g, the “Weight on day 1” value (hatched quail chicks; [16]) was 9.60 ± 0.16 g and the Feed conversion (hatched quail chicks; [17]) was 3.414 ± 0.048 g/g. The Weight gain (hatched quail chicks; [17]) was 224.98 ± 2.9 g, the total feed intake, days 1–35 (hatched quail chicks; [17]) was 768 ± 11.1 g and the “Weight on day 1” value (hatched quail chicks; [17]) was 9.74 ± 0.31 g. For the same compound, the Feed conversion (hatched quail chicks; [18]) was 3.305 ± 0.033 g/g, the Weight gain (hatched quail chicks; [18]) was 217.22 ± 0.6 g and the total feed intake, days 1–35 (hatched quail chicks; [18]) was 718 ± 8.95 g. For the same compound, the “Weight on day 1” value (hatched quail chicks; [18]) was 9.65 ± 0.16 g, the Feed conversion (hatched quail chicks; [19]) was 3.455 ± 0.090 g/g and the Weight gain (hatched quail chicks; [19]) was 222.86 ± 1.9 g. The total feed intake, days 1–35 (hatched quail chicks; [19]) was 770 ± 26.1 g, the “Weight on day 1” value (hatched quail chicks; [19]) was 9.41 ± 0.17 g and the “Creatine in the muscle” value (hatched quail chicks; freshly hatched chicks of parents fed 0.06% by weight GAA) was 0.541 ± 0.026 mg/g. The “Creatine in the muscle” value (hatched quail chicks; freshly hatched chicks of parents fed 0.12% by weight GAA) was 0.489 ± 0.058 mg/g, the “Creatine in the muscle” value (hatched quail chicks; freshly hatched chicks of parents fed 0.18% by weight GAA) was 0.481 ± 0.040 mg/g and the “Creatine in the muscle” value (hatched quail chicks; freshly hatched chicks of parents fed 0.24% by weight GAA) was 0.433 ± 0.033 mg/g.

For CN(CC(=O)O)C(=N)N [creatine], the “effect on the hatching rate” value (eggs) is listed as “no effect”.
